Measurements from US20190201376A1, “Method for Treating or Preventing Fatty Acid Binding Protein 3 Induced B-amyloid Aggregation Diseases” (NATIONAL TAIWAN NORMAL UNIVERSITY, priority 2017, published 2019).

Tests used:
[1] = test system: stably transfected human FABP3-SH-SY5Y cells; experiment: Western blot of Aβ42 oligomerization in stably transfected human FABP3-SH-SY5Y cells; assay type: cell-based; conditions: artemisinin 4 μM pretreatment 4 hours, Aβ42 2.5 μM 24 hours
Procedure: (§1) Human neuroblastoma SH-SY5Y cell line was obtained from American Type Culture Collection (ATCC® CRL-2266™) and maintained in Dulbecco's Modified Eagle Medium with nutrient mixture F-12 (DMEM/F12; Invitrogen) media supplemented with 10% FBS, 100 U/mL penicillin and 100 μg/mL streptomycin at 37° C. in a 5% CO2 humidified incubator.
Human FAPB3 cDNA, which was reverse transcribed from the total RNA of SH-SY5Y cells, was amplified by polymerase chain reaction (PCR) using primers (5′-[…] and 5′-TGCCTCTrTCTCATAAGTG) and then cloned into pcDNA™3.1D/V5-His-TOPO vector (Invitrogen). SH-SY5Y cells stably expressing human FABP3 were obtained using lipofectamine transfection with selection via cultivation in DMEM/F12 medium (Gibco) containing 500 μg/mL G418 (Sigma-Aldrich).
Then, the stably transfected human FABP3-SH-SY5Y cells were washed with PBS and lysed with radioimmunoprecipitation (RIPA) buffer supplemented with cOmplete™ Protease Inhibitor Cocktail (Sigma-Aldrich). The samples with equal amounts of total protein (50 μg) were fractionated by SDS-PAGE and electrotransferred to a polyvinylidene difluoride (PVDF) membrane (Millipore). The membrane was blocked for one hour at room temperature with 10% nonfat milk in TBST buffer (20 mM Tris-HCl, 150 mM NaCl, and 0.1% Tween 20); thereafter, the membrane was incubated with 6E10 (BioLegend), FABP3 (Santa Cruz) or GAPDH (Santa Cruz) antibodies. […]

3×Tg AD transgenic mice [2] = experiment: Novel object recognition test; assay type: in vivo; conditions: 3×Tg AD mice, artemisinin 1 mg/kg i.p. every other day from 12 to 36 weeks of age, versus untreated 3×Tg AD mice; p<0.05
Procedure: In the present embodiment, 3×Tg AD transgenic mice were obtained from the Jackson Laboratory (004807), and wild-type C57BL/6 mice were purchased from the National Laboratory Animal Center. The body weights of the animals were measured every eight weeks from 12th to 36th week-old. The animals were i.p. administered with pure water or artemisinin (1 mg/kg) every other day from 12 weeks to 36 weeks of age; the WT-W group was water vehicle-treated wild-type mice; the AD-W group was water vehicle-treated 3×Tg AD transgenic mice; and AD-R group was artemisinin-treated 3×Tg AD transgenic mice. The animals were examined by using behavioral tasks, including Morris water maze test, spontaneous alternation behavior Y-maze test, and novel object recognition task test, when they were 36-week-old. The novel object recognition was conducted to examine whether artemisinin can restore recognition memory, which involves the frontal cortex, entorhinal cortex and hippocampus; it was used to evaluate the inborn tendency of the rodents to explore novel objects rather than familiar ones. During the first two days, mice were habituated to open field (50×40 cm, with 22 cm in height) for two sessions of 10 min each day in order to be familiar with the apparatus. […] The discrimination index was calculated as percentage ratio of TB/(TA+TB)×100. […]

3×Tg AD transgenic mice [3] = experiment: Spontaneous alternation behavior Y-maze test; assay type: in vivo; conditions: 3×Tg AD mice, artemisinin 1 mg/kg i.p. every other day from 12 to 36 weeks of age, tested at 36 weeks
Procedure: In the present embodiment, 3×Tg AD transgenic mice were obtained from the Jackson Laboratory (004807), and wild-type C57BL/6 mice were purchased from the National Laboratory Animal Center. The body weights of the animals were measured every eight weeks from 12th to 36th week-old. The animals were i.p. administered with pure water or artemisinin (1 mg/kg) every other day from 12 weeks to 36 weeks of age; the WT-W group was water vehicle-treated wild-type mice; the AD-W group was water vehicle-treated 3×Tg AD transgenic mice; and AD-R group was artemisinin-treated 3×Tg AD transgenic mice. The animals were examined by using behavioral tasks, including Morris water maze test, spontaneous alternation behavior Y-maze test, and novel object recognition task test, when they were 36-week-old. The spontaneous alternation behavior Y-maze test was used to estimate short-term memory. The Y-maze was a three-arm maze (30 cm long and 5 cm wide with 12 cm in height) with equal angles and the arms were labeled A, B, and C. The 36-week-old mice (n=6 per group) administered with aforementioned treatment were initially placed within one arm, and the number of arm entries and the number of alternations were recorded for eight min period for each mouse. […] The percentage of alternation was calculated by the following equation: Alternation (%)=[(Number of alternation)/(Total arm entries−2)]×100.

3×Tg AD transgenic mice [4] = experiment: Morris water maze test; assay type: in vivo; conditions: 3×Tg AD mice, artemisinin 1 mg/kg i.p. every other day from 12 to 36 weeks of age, tested at 36 weeks; p<0.05
Procedure: In the present embodiment, 3×Tg AD transgenic mice were obtained from the Jackson Laboratory (004807), and wild-type C57BL/6 mice were purchased from the National Laboratory Animal Center. The body weights of the animals were measured every eight weeks from 12th to 36th week-old. The animals were i.p. administered with pure water or artemisinin (1 mg/kg) every other day from 12 weeks to 36 weeks of age; the WT-W group was water vehicle-treated wild-type mice; the AD-W group was water vehicle-treated 3×Tg AD transgenic mice; and AD-R group was artemisinin-treated 3×Tg AD transgenic mice. The animals were examined by using behavioral tasks, including Morris water maze test, spontaneous alternation behavior Y-maze test, and novel object recognition task test, when they were 36-week-old. To evaluate whether artemisinin ameliorates the spatial learning and memory deficits, the Morris water maze test was performed. […] After the last trail, mice were subjected to the probe test that the platform was removed, and the time spent in quadrants was recorded by a computer-controlled system.

[5] = test system: SH-SY5Y cells transfected with human FABP3; experiment: MTT cell viability assay, Aβ42 cytotoxicity in FABP3-transfected SH-SY5Y cells; assay type: cell-based; conditions: pcDNA3/FABP3 SH-SY5Y cells, artemisinin (0-4 μM) pretreatment four hours, Aβ42 2.5 μM 24 hours; increased from 65% without artemisinin; p<0.01
Procedure: as §1
Human FAPB3 cDNA, which was reverse transcribed from the total RNA of SH-SY5Y cells, was amplified by polymerase chain reaction (PCR) using primers (5′-[…] and 5′-TGCCTCTTCTCATAAGTG) and then cloned into pcDNA™3.1D/V5-His-TOPO vector (Invitrogen). SH-SY5Y cells stably expressing human FABP3 were obtained using lipofectamine transfection with selection via cultivation in DMEM/F12 medium (Gibco) containing 500 µg/mL G418 (Sigma-Aldrich).
Afterwards, purple formazan crystals formed by reduction of MTT in the mitochondria of living cells were dissolved in 100 μl solution containing 10% SDS and 0.01N HCl. The absorbance was measured at 570 nm with an ELISA reader (pQuant; BioTek Instruments, Inc).

[6] = biological target: T1, recombinant human FABP3 protein (FABP3-induced Aβ42 oligomerization) (Homo sapiens, UniProt P05413); experiment: Western blot of Aβ42 oligomerization with recombinant FABP3 pre-incubated with artemisinin; assay type: biochemical; conditions: artemisinin 4 μM preincubated with FABP3 2.5 μM for four hours, then Aβ42 oligomers 2.5 μM 24 hours; 6E10 antibody, ImageJ; p<0.05
T1 construct: purchased Cayman Chemical
Procedure: Synthetic Aβ42 peptides (AnaSpec) were solubilized in hexafluoroisopropanol (HFIP), and then HFIP was allowed to be evaporated completely under nitrogen flow. Aβ42 peptides were resuspended using phosphate buffered saline (PBS) to […], and were incubated to assemble oligomers at room temperature for 24 hours prior to use. The oligomeric status of AP was verified by sodium dodecyl sulfate polyacrylamide gel electrophoresis (SDS-PAGE).
Afterwards, the oligomerization of Aβ42 was analyzed using western blot analysis and detected with 6E10 antibody.

T1 sequence (P05413 whole entry): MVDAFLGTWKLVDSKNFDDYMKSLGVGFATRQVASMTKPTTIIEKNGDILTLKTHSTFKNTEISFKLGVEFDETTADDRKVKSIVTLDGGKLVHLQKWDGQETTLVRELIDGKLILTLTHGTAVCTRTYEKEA

C[C@@H]1CC[C@H]2[C@@H](C)C(=O)O[C@@H]3O[C@@]4(C)CC[C@@H]1[C@]32OO4 [artemisinin]
decrease of Aβ42 tetramer induced by FABP3 overexpression [1]: 87% | decrease of Aβ42 trimer induced by FABP3 overexpression [1]: 78% | increment in the discrimination index (3×Tg AD transgenic mice [2]): 56% | spatial working memory (spontaneous alternation rate) (3×Tg AD transgenic mice [3]): restored spatial working memory to the extent similar as that of the wild-type group | time in finding the hidden platform (3×Tg AD transgenic mice [4]): significantly less time | cell viability [5]: 85% | decrease of Aβ42 tetramer induced by FABP3 [6]: 156% | decrease of Aβ42 trimer induced by FABP3 [6]: 144%
